Data on two compounds can be found in PMC10141604, “Small-Molecule Inhibition of Androgen Receptor Dimerization as a Strategy against Prostate Cancer” (ACS Central Science, 2023).

The target of one experiment is T1, GR (Homo sapiens, UniProt P04150).
T1 construct: host or cells: HeLa
T1 sequence (P04150 1-777): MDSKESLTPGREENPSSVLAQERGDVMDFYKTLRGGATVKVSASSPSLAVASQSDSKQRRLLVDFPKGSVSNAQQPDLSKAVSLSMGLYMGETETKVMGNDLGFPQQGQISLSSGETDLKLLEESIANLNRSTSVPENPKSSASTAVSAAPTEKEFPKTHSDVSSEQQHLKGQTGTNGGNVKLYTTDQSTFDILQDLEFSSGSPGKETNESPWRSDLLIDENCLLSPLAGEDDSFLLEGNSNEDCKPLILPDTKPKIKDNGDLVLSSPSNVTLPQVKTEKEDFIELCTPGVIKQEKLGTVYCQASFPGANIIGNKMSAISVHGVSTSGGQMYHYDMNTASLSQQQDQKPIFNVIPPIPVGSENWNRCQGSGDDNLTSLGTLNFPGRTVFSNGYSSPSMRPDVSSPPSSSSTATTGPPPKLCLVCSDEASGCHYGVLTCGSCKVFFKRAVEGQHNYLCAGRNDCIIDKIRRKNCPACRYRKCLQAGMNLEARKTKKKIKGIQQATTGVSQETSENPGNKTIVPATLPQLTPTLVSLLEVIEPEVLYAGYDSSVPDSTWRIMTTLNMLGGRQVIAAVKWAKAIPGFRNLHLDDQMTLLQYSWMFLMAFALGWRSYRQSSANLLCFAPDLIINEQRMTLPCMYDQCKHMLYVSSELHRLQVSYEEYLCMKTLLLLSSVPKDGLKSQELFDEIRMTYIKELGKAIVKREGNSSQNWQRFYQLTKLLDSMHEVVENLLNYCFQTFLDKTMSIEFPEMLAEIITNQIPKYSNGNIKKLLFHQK
Kind of experiment: Luciferase reporter assay for GR (HeLa cells). Type of experiment: cell-based. To be noted: 10 μM, 1 nM dexamethasone. The procedure:
calculating volume (V= 0.5 × L × W2). Finally, the mice were sacrificed and the tumors were harvested for hematoxylin and eosin (H&E) staining.
(§1) Luciferase Reporter Assays for PR, GR, and MR
Addgene), 24 ng pGL4.36[luc2P MMTV Hygro] (Promega) and 5 ng Renilla using HG- […]
Addgene), 24 ng pGL4.36[luc2P MMTV Hygro] (Promega) and 5 ng Renilla using lip3000 transfection reagent (#L3000075, Thermofisher) for 24 h. For MR induction, HEK293T (1 × 10^4 cells/well) were transfected with 71 ng pCMV-MR gifted by Liu et al. 28, 24 ng of pGL4.36[luc2P MMTV Hygro] (Promega) and 5 ng Renilla using lip3000 transfec tion reagent for 24 h. For the antagonistic models, 10 nM /well progesterone for PC3 cells , 1 nM/well dexamethasone for HeLa, and 5 nM/well aldosterone for HEK293T cells were added to stimulate the cells. Meanwhile, each cell line was treated […]
For the agonistic models, the cells were directly treated with the compounds without any hormones. […]
hormones progesterone, dexamethasone, and aldosterone were considered as agonists for PR, GR, and MR, respectively. The luciferase activities were assessed using the Dual-Glo Luciferase system (#E1910, Promega).
Cell Cycle and Apoptosis for LNCaP cells
LNCaP were cultured in 6-well plate with 5× 10^5 cells/well, after incubated at 37 °C for […]
Cell cycle were determined after 48 h incubation by Cell Cycle Staining Kit (#CCS012, MULTI SCIENCES) using […]
A general note: In a reporter assay the amount or activity of a reporter protein is the signal.

The next experiment deals with T2, PR (Homo sapiens, UniProt P06401).
T2 construct: host or cells: PC3
T2 sequence (P06401 1-933): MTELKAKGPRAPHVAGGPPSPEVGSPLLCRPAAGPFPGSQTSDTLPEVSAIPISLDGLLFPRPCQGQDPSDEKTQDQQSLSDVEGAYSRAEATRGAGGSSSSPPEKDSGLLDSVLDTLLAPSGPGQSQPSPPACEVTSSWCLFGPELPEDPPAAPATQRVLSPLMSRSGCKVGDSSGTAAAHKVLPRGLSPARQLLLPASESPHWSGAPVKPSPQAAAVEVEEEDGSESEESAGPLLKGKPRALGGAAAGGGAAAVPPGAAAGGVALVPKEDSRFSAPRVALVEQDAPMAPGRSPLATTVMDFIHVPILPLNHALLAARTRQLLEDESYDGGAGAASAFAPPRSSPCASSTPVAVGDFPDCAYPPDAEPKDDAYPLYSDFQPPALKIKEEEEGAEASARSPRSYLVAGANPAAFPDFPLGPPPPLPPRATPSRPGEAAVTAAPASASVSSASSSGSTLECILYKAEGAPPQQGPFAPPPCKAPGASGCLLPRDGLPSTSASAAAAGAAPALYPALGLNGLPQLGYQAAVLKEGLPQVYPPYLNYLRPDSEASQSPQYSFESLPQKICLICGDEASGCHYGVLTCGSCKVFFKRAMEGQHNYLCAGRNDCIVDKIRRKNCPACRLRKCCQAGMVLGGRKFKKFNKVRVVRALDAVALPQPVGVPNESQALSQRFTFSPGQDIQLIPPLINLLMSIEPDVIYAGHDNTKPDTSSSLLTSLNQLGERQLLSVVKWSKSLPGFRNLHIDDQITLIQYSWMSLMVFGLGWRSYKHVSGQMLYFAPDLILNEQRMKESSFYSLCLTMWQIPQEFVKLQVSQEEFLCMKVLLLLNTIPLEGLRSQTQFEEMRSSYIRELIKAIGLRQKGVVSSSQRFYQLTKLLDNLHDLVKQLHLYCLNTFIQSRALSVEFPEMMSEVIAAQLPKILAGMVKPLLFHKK
Kind of experiment: Luciferase reporter assay for PR (PC3 cells). Conditions: 10 μM, 10 nM progesterone. It is filed as cell-based. The procedure:
as §1
PC3, HeLa, and HEK293T cells were cultured using 5% CSS RPMI-1640, 5% CSS RPMI-1640 and 10% FBS DMEM media in 96-well plates for 24 h, respectively. For PR induction, PC3 (1 × 10^4 cells/well) were transfected with 50 ng pcDNA3-PRB (#89130, Addgene), 24 ng pGL4.36[luc2P MMTV Hygro] (Promega) and 5 ng Renilla using HG-TransGeneTM transfection reagent (#TG-10012, Genomeditech) for 4 h. For GR induction, Hela (1 × 10^4 cells/well) were transfected with 71 ng pCMV -GR11 (#89105, Addgene), 24 ng pGL4.36[luc2P MMTV Hygro] (Promega) and 5 ng Renilla using lip3000 transfection reagent (#L3000075, Thermofisher) for 24 h. For MR induction, HEK293T (1 × 10^4 cells/well) were transfected with 71 ng pCMV-MR gifted by Liu et al. 28, 24 ng of pGL4.36[luc2P MMTV Hygro] (Promega) and 5 ng Renilla using lip3000 transfec tion reagent for 24 h. For the antagonistic models, 10 nM /well progesterone for PC3 cells , 1 nM/well dexamethasone for HeLa, and 5 nM/well aldosterone for HEK293T cells were added to stimulate the cells. Meanwhile, each cell line was treated with a series concentration of compounds (0.4, 2, and 10 μM). For the agonistic models, the cells were directly treated with the compounds without any hormones. Endogenous hormones progesterone, dexamethasone, and aldosterone were considered as agonists for PR, GR, and MR, respectively. The luciferase activities were assessed using the Dual-Glo Luciferase system (#E1910, Promega). […]

On to `CC(=O)Cc1nsc(NC(=O)c2cc(-c3cccc(C(F)(F)F)c3)oc2C)n1` [Compound M17-B15], for which the “GR antagonistic activity” value at GR is on record as “largely ineffective”. The “PR antagonistic activity” value on PR is “moderate”.

With `CNC(=O)c1ccc(N2C(=S)N(c3ccc(C#N)c(C(F)(F)F)c3)C(=O)C2(C)C)cc1F` [Enz, enzalutamide, reference compound], the “GR antagonistic activity” value on GR is recorded as “largely ineffective”. In addition, the “PR antagonistic activity” value on PR is listed as “moderate”.
